Each structure is given as a SMILES string.

The assay addresses T1, MAGL (Homo sapiens, UniProt Q99685).
T1 sequence (Q99685 1-303): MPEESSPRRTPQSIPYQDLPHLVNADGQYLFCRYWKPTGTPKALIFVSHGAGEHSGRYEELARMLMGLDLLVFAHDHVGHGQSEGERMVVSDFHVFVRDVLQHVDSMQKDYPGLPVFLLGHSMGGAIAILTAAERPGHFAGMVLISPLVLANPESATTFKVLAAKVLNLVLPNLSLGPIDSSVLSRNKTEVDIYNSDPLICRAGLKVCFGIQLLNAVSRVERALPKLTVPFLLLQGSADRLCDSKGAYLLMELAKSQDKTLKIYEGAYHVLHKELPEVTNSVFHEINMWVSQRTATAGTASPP
As to the kind of experiment: 2-AG assay (MAGL inhibitory activity, hydrolysis of 2-arachidonoylglycerol to arachidonic acid followed by mass spectrometry). Particulars: 8 μM 2-arachidonoylglycerol, 15 min pre-incubation, 30 min incubation at RT, RapidFire MS readout. In kind it is biochemical. In outline:
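Human MAGL ([…] final) pre-incubated 15 min at RT with compound in 50 mM TRIS, 1 mM EDTA, 0.01% Tween-20, 2.5% DMSO; 8 μM 2-AG then added for 30 min at RT. Acetonitrile quench with d8-arachidonic acid; arachidonic acid measured by RapidFire SPE–MS/MS, activity from arachidonic acid/d8 ratio.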
The IC50 is the point on the concentration scale where inhibition reaches its midpoint. As for `CP(C)(=O)c1ccc(CC2CC3(C2)CN(C(=O)N2CC4(CC(n5cnc(C(F)(F)F)n5)C4)C2)C3)nc1` [Example 377, [6-[(5-dimethylphosphoryl-2-pyridyl)methyl]-2-azaspiro[3.3]heptan-2-yl]-[6-[3-(trifluoromethyl)-1,2,4-triazol-1-yl]-2-azaspiro[3.3]heptan-2-yl]methanone], it took 392 nM to reach half-maximal inhibition (IC50). This counts as sub-micromolar. The figure for `CP(C)(=O)c1ccc(CC2CC3(C2)CN(C(=O)N2CC4(CC(n5cnc(C6CC6)n5)C4)C2)C3)nc1` [Example 378, [6-(3-cyclopropyl-1,2,4-triazol-1-yl)-2-azaspiro[3.3]heptan-2-yl]-[6-[(5-dimethylphosphoryl-2-pyridyl)methyl]-2-azaspiro[3.3]heptan-2-yl]methanone] is 106 nM. In the case of `CP(C)(=O)c1ccc(CN2CC3(C2)CN(C(=O)N2CC4(CC(n5cnc(C(F)(F)F)n5)C4)C2)C3)cc1` [Example 379, [6-[(4-dimethyl-phosphorylphenyl)methyl]-2,6-diazaspiro[3.3]heptan-2-yl]-[6-[3-(trifluoromethyl)-1,2,4-triazol-1-yl]-2-azaspiro[3.3]heptan-2-yl]methanone] it was 3350 nM; in that of `O=C(N1CC2(CC(Cc3ccc(F)cc3F)C2)C1)N1CC2(CC(c3cncc(F)c3)C2)C1` [Example 380, [6-[(2,4-difluorophenyl)methyl]-2-azaspiro[3.3]heptan-2-yl]-[6-(5-fluoro-3-pyridyl)-2-azaspiro[3.3]heptan-2-yl]methanone], 0.57 nM; in that of `O=C(N1CC2(CC(Cc3ccc(OC(F)(F)F)nc3)C2)C1)N1CC2(CC(n3cnc(C4(O)CC4)n3)C2)C1` [Example 381], 0.44 nM. In the case of `O=C(N1CC(C23CC(Cc4ccc(C(F)(F)F)nc4)(C2)C3)C1)N1CC2(CC(n3cnc(C4(O)CC4)n3)C2)C1` [Example 382, [6-[3-(1-hydroxycyclopropyl)-1,2,4-triazol-1-yl]-2-azaspiro[3.3]heptan-2-yl]-[3-[3-[[6-(trifluoromethyl)-3-pyridyl]methyl]-1-bicyclo[1.1.1]pentanyl]azetidin-1-yl]methanone] it was 52.4 nM; in that of `O=C(N1CC2(CC(Cc3ccc4[nH]ncc4n3)C2)C1)N1CC2(CC(n3cnc(C4(O)CC4)n3)C2)C1` [Example 383, [6-[3-(1-hydroxycyclopropyl)-1,2,4-triazol-1-yl]-2-azaspiro[3.3]heptan-2-yl]-[6-(1H-pyrazolo[4,3-b]pyridin-5-ylmethyl)-2-azaspiro[3.3]heptan-2-yl]methanone], 39.8 nM. `O=C(N1CC(C23CC(Cc4nnc(C5CC5)[nH]4)(C2)C3)C1)N1CC2(CC(n3cnc(C4CC4)n3)C2)C1` [Example 384, [6-(3-cyclopropyl-1,2,4-triazol-1-yl)-2-azaspiro[3.3]heptan-2-yl]-[3-[3-[(5-cyclopropyl-4H-1,2,4-triazol-3-yl)methyl]-1-bicyclo[1.1.1]pentanyl]azetidin-1-yl]methanone] had an IC50 of 4.88 nM. For `CS(=O)(=O)c1ccc(CC2CC3(C2)CN(C(=O)N2CC4(CC(n5cnc(C6(O)CC6)n5)C4)C2)C3)cc1C(F)(F)F` [Example 385, [6-[3-(1-hydroxycyclopropyl)-1,2,4-triazol-1-yl]-2-azaspiro[3.3]heptan-2-yl]-[6-[[4-methylsulfonyl-3-(trifluoromethyl)phenyl]methyl]-2-azaspiro[3.3]heptan-2-yl]methanone], the midpoint of inhibition, the IC50, lay at 1.25 nM.

In turn, `CS(=O)(=O)c1cc(Cl)ccc1-c1ccc(C2CN(C(=O)N3CC4(CC(c5ccc(C(F)(F)F)nc5)C4)C3)C2)cn1` [Example 386, [3-[6-(4-chloro-2-methylsulfonyl-phenyl)-3-pyridyl]azetidin-1-yl]-[6-[6-(trifluoromethyl)-3-pyridyl]-2-azaspiro[3.3]heptan-2-yl]methanone] registered an IC50 of 142 nM. The figure for `N#Cc1cc(C(F)(F)F)ncc1O[C@H]1CCC2(C1)CN(C(=O)N1CC3(CC(n4cnc(C5(O)CC5)n4)C3)C1)C2` [Example 387, 5-[[(6S)-2-[6-[3-(1-hydroxycyclopropyl)-1,2,4-triazol-1-yl]-2-azaspiro[3.3]heptane-2-carbonyl]-2-azaspiro[3.4]octan-6-yl]oxy]-2-(trifluoromethyl)pyridine-4-carbonitrile] is 196 nM; for `O=C(N1CC2(CCC(Cc3ncc(F)cc3F)C2)C1)N1CC2(CC(n3cnc(C4(O)CC4)n3)C2)C1` (stereo not drawn) [Example 388, [6-[(3,5-difluoro-2-pyridyl)methyl]-2-azaspiro[3.4]octan-2-yl]-[6-[3-(1-hydroxycyclopropyl)-1,2,4-triazol-1-yl]-2-azaspiro[3.3]heptan-2-yl]methanone] it is 8.72 nM.

`O=C(N1CC2(CCC(Cc3ccc(C(F)(F)F)cn3)C2)C1)N1CC2(CC(n3cnc(C4(O)CC4)n3)C2)C1` (stereo not drawn) [Example 389, [6-[3-(1-hydroxycyclopropyl)-1,2,4-triazol-1-yl]-2-azaspiro[3.3]heptan-2-yl]-[6-[[5-(trifluoromethyl)-2-pyridyl]methyl]-2-azaspiro[3.4]octan-2-yl]methanone] yielded an IC50 of 8.68 nM. The figure for `O=C(N1CC2(CC(Cc3ccc(F)cn3)C2)C1)N1CC2(CC(n3cnc(C4(O)CC4)n3)C2)C1` [Example 390, [6-[(5-fluoro-2-pyridyl)methyl]-2-azaspiro[3.3]heptan-2-yl]-[6-[3-(1-hydroxycyclopropyl)-1,2,4-triazol-1-yl]-2-azaspiro[3.3]heptan-2-yl]methanone] is 30.1 nM; for `O=C(N1CC2(CCN(Cc3ccc(C(F)(F)F)cn3)CC2)C1)N1CC2(CC(n3cnc(C4(O)CC4)n3)C2)C1` [Example 391, [6-[3-(1-hydroxycyclopropyl)-1,2,4-triazol-1-yl]-2-azaspiro[3.3]heptan-2-yl]-[7-[[5-(trifluoromethyl)-2-pyridyl]methyl]-2,7-diazaspiro[3.5]nonan-2-yl]methanone] it is 14.1 nM. With `O=C(N1CC2(CCN(Cc3ccc(C(F)(F)F)nc3)CC2)C1)N1CC2(CC(n3cnc(C4(O)CC4)n3)C2)C1` [Example 392, [6-[3-(1-hydroxycyclopropyl)-1,2,4-triazol-1-yl]-2-azaspiro[3.3]heptan-2-yl]-[7-[[6-(trifluoromethyl)-3-pyridyl]methyl]-2,7-diazaspiro[3.5]nonan-2-yl]methanone], the midpoint of inhibition, the IC50, lay at 197 nM. `COc1cc(C(F)(F)F)ccc1CNC1CN(C(=O)N2CC3(CC(n4cnc(C5(O)CC5)n4)C3)C2)C1` [Example 393, [6-[3-(1-hydroxycyclopropyl)-1,2,4-triazol-1-yl]-2-azaspiro[3.3]heptan-2-yl]-[3-[[2-methoxy-4-(trifluoromethyl)phenyl]methylamino]azetidin-1-yl]methanone] came in with an IC50 of 401 nM. In turn, `CC1(Cc2nnc(-c3ccc(C4CN(C(=O)N5CC6(CC(n7cnc(C8(O)CC8)n7)C6)C5)C4)cc3)[nH]2)CC1` [Example 394, [6-[3-(1-hydroxycyclopropyl)-1,2,4-triazol-1-yl]-2-azaspiro[3.3]heptan-2-yl]-[3-[4-[5-[(1-methylcyclopropyl)methyl]-4H-1,2,4-triazol-3-yl]phenyl]azetidin-1-yl]methanone] gave a concentration for half-maximal inhibition (IC50) of 43.7 nM.

These data come from patent US20240199587A1, “HETEROCYCLIC COMPOUNDS” (Hoffmann-La Roche Inc., priority 2021, published 2024).
